US9212182B2, “Bicyclic sulfonamide compounds as sodium channel inhibitors” (AMGEN INC., priority 2013, dated 2015)

Molecular target: Nav 1.7 (Homo sapiens (Human), UniProt Q15858)
Experiment: in-vitro Nav 1.7 PX (IC50)
Assay type: cell-based
Settings: not given

Nav 1.7, sequence (Q15858 whole entry): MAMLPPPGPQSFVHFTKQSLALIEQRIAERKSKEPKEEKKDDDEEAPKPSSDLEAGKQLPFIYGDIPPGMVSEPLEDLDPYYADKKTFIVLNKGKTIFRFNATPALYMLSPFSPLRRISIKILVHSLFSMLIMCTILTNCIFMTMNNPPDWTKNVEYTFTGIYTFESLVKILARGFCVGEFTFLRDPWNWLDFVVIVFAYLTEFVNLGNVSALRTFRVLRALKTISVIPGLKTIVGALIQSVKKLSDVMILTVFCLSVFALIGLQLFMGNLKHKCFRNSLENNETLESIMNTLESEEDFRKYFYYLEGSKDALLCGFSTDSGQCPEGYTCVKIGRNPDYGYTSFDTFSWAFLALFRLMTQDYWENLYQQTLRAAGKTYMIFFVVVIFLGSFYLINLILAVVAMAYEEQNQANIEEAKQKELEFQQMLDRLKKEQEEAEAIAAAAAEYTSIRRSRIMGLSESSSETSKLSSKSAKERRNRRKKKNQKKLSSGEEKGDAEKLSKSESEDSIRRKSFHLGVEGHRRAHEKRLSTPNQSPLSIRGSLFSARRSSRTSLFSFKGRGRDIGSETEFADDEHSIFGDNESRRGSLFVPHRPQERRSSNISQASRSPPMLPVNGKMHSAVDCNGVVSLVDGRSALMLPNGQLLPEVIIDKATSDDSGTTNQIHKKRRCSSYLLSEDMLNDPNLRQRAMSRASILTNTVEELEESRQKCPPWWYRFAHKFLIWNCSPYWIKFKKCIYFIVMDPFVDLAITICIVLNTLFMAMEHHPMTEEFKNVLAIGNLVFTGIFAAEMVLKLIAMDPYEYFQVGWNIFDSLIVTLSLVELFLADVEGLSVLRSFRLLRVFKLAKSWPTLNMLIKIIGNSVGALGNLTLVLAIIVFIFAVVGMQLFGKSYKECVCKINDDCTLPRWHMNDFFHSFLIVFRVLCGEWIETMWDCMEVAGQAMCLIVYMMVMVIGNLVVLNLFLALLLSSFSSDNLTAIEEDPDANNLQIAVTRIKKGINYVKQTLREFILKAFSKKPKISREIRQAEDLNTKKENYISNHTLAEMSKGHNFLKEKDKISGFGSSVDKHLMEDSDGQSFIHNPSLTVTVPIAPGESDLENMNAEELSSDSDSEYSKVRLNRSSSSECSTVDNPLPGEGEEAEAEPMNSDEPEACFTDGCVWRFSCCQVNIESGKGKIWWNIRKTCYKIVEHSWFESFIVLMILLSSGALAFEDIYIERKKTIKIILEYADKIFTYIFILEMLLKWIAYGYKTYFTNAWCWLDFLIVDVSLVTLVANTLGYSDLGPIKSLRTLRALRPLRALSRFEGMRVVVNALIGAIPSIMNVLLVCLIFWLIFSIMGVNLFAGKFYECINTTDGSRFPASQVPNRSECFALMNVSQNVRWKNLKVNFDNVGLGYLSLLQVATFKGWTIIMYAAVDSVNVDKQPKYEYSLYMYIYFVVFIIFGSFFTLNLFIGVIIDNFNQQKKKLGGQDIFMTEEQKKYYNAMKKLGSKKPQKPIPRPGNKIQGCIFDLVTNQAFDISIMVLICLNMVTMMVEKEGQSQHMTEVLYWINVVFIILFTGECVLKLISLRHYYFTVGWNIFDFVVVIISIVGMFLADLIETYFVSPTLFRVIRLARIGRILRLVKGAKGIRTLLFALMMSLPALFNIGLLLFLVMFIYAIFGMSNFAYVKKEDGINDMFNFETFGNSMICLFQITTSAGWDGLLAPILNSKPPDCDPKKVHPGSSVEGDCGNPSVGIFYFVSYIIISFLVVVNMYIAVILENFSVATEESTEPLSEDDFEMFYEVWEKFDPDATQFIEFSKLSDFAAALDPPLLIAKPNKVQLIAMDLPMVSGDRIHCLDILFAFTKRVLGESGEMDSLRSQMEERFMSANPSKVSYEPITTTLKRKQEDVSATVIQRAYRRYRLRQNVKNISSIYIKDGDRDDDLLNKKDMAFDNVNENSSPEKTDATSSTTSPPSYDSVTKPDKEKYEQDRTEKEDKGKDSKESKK

| IC50 | SMILES |
| --- | --- |
| 7.13 µM | COc1cc(-c2ccc(F)c(Cl)c2)ccc1-n1c(=O)ccc2cc(S(=O)(=O)Nc3ccon3)ccc21 (atropisomer, axis not shown; (M)) [Example 577, (M)-1-(3′-chloro-4′-fluoro-3-methoxy-4-biphenylyl)-N-3-isoxazolyl-2-oxo-1,2-dihydro-6-quinolinesulfonamide] |
| 4.31 µM | COc1cc(-c2ccc(Cl)c(F)c2)ccc1-n1c(=O)ccc2cc(S(=O)(=O)Nc3ccon3)ccc21 (atropisomer, axis not shown; (M)) [Example 579, (M)-1-(4′-chloro-3′-fluoro-3-methoxy-4-biphenylyl)-N-3-isoxazolyl-2-oxo-1,2-dihydro-6-quinolinesulfonamide] |
| > 10 µM | COc1cc(-c2cccc(C)c2)ccc1-n1c(=O)ccc2cc(S(=O)(=O)Nc3ccon3)ccc21 (atropisomer, axis not shown; (M)) [Example 583, (M)-N-3-isoxazolyl-1-(3-methoxy-3′-methyl-4-biphenylyl)-2-oxo-1,2-dihydro-6-quinolinesulfonamide] |
| > 1 µM | COc1cc(-c2cc(C)cc(Cl)c2)ccc1-n1c(=O)ccc2cc(S(=O)(=O)Nc3ccon3)ccc21 (atropisomer, axis not shown; (M)) [Example 586, (M)-1-(3′-chloro-3-methoxy-5′-methyl-4-biphenylyl)-N-3-isoxazolyl-2-oxo-1,2-dihydro-6-quinolinesulfonamide] |
| 1.02 µM | COc1cc(-c2ccc(C)c(Cl)c2)ccc1-n1c(=O)ccc2cc(S(=O)(=O)Nc3ccon3)ccc21 (atropisomer, axis not shown; (M)) [Example 588, (M)-1-(3′-chloro-3-methoxy-4′-methyl-4-biphenylyl)-N-3-isoxazolyl-2-oxo-1,2-dihydro-6-quinolinesulfonamide] |
| 17.2 µM | COc1nc(C2CC2)c(Cl)cc1-n1c(=O)ccc2cc(S(=O)(=O)Nc3ccon3)ccc21 (atropisomer, axis not shown; (M)) [Example 1229, (M)-1-(5-chloro-6-cyclopropyl-2-methoxy-3-pyridinyl)-N-3-isoxazolyl-2-oxo-1,2-dihydro-6-quinolinesulfonamide] |
| 0.141 µM | COc1cc(-c2cccc(Cl)c2)cc(F)c1-n1c(=O)ccc2cc(S(=O)(=O)Nc3ccon3)ccc21 (atropisomer, axis not shown; (P)) [Example 320, (P)-1-(3′-chloro-3-fluoro-5-methoxy-4-biphenylyl)-N-3-isoxazolyl-2-oxo-1,2-dihydro-6-quinolinesulfonamide] |
| 0.01 µM | COc1cc(-c2cccc(Cl)c2)c(C)cc1-n1c(=O)ccc2cc(S(=O)(=O)Nc3ncccn3)ccc21 (atropisomer, axis not shown; (P)) [Example 321, (P)-1-(3′-chloro-5-methoxy-2-methyl-4-biphenylyl)-2-oxo-N-2-pyrimidinyl-1,2-dihydro-6-quinolinesulfonamide] |

| SMILES | IC50 |
| --- | --- |
| COc1cc(-c2cccc(C(F)(F)F)c2)c(Cl)cc1-n1c(=O)ccc2cc(S(=O)(=O)Nc3ccon3)ccc21 (atropisomer, axis not shown; (M)) [Example 534, (M)-1-(2-chloro-5-methoxy-3′-(trifluoromethyl)-[1,1′-biphenyl]-4-yl)-N-(isoxazol-3-yl)-2-oxo-1,2-dihydroquinoline-6-sulfonamide] | 1.35 µM |

Same assay, conditions: in-vitro Nav 1.7 PX data

| IC50 | SMILES |
| --- | --- |
| 10.1 µM | COc1cc(Cl)c(-c2cccc(F)c2)cc1-n1c(=O)ccc2cc(S(=O)(=O)Nc3ccon3)ccc21 (atropisomer, axis not shown; (M)) [Example 609, (M)-1-(6-chloro-3′-fluoro-4-methoxy-3-biphenylyl)-N-3-isoxazolyl-2-oxo-1,2-dihydro-6-quinolinesulfonamide] |
| 0.355 µM | COc1ccc(-c2cc(F)cc(Cl)c2)cc1-n1c(=O)ccc2cc(S(=O)(=O)Nc3ccncn3)ccc21 (atropisomer, axis not shown; (M)) [Example 612, (M)-1-(3′-chloro-5′-fluoro-4-methoxy-3-biphenylyl)-2-oxo-N-4-pyrimidinyl-1,2-dihydro-6-quinolinesulfonamide] |
| 10.8 µM | COc1cc(Cl)c(-c2cc(F)cc(Cl)c2)cc1-n1c(=O)ccc2cc(S(=O)(=O)Nc3ccon3)ccc21 (atropisomer, axis not shown; (M)) [Example 615, (M)-1-(3′,6-dichloro-5′-fluoro-4-methoxy-3-biphenylyl)-N-3-isoxazolyl-2-oxo-1,2-dihydro-6-quinolinesulfonamide] |
| 1.06 µM | COc1nc(-c2cc(F)cc(F)c2)c(Cl)cc1-n1c(=O)ccc2cc(S(=O)(=O)Nc3ccon3)ccc21 (atropisomer, axis not shown; (M)) [Example 666, (M)-1-(5-chloro-6-(3,5-difluorophenyl)-2-methoxy-3-pyridinyl)-N-3-isoxazolyl-2-oxo-1,2-dihydro-6-quinolinesulfonamide] |

| SMILES | IC50 |
| --- | --- |
| Cc1cc(-c2cc(C)c(-n3c(=O)ccc4cc(S(=O)(=O)Nc5ncccn5)ccc43)cc2F)ccc1Cl (atropisomer, axis not shown; (M)) [Example 650, (M)-1-(4′-chloro-2-fluoro-3′,5-dimethyl-4-biphenylyl)-2-oxo-N-2-pyrimidinyl-1,2-dihydro-6-quinolinesulfonamide] | 3.8 µM |

Same assay, conditions: in-vitro PatchXpress (PX)

| SMILES | IC50 |
| --- | --- |
| COc1cc(-c2cc(F)cc(F)c2F)c(F)cc1-n1c(=O)ccc2cc(S(=O)(=O)Nc3ccon3)ccc21 (atropisomer, axis not shown; (M)) [Example 515, (M)-N-3-isoxazolyl-2-oxo-1-(2,2′,3′,5′-tetrafluoro-5-methoxy-4-biphenylyl)-1,2-dihydro-6-quinolinesulfonamide] | 5.16 µM |
| COc1cc(-c2cc(F)c(F)cc2F)c(F)cc1-n1c(=O)ccc2cc(S(=O)(=O)Nc3ccon3)ccc21 (atropisomer, axis not shown; (M)) [Example 517, (M)-N-3-isoxazolyl-2-oxo-1-(2,2′,4′,5′-tetrafluoro-5-methoxy-4-biphenylyl)-1,2-dihydro-6-quinolinesulfonamide] | 0.021 µM |

The remaining lines, values ahead:

| IC50 | SMILES |
| --- | --- |
| 24.9 µM | COc1cc(-c2cccc(C#N)c2)c(F)cc1-n1c(=O)ccc2cc(S(=O)(=O)Nc3ccon3)ccc21 (atropisomer, axis not shown; (M)) [Example 499, (M)-1-(3′-cyano-2-fluoro-5-methoxy-4-biphenylyl)-N-3-isoxazolyl-2-oxo-1,2-dihydro-6-quinolinesulfonamide] |
| 1.23 µM | COc1cc(Cl)cc(-c2cc(OC)c(-n3c(=O)ccc4cc(S(=O)(=O)Nc5ccon5)ccc43)cc2F)c1 (atropisomer, axis not shown; (M)) [Example 502, (M)-1-(3′-chloro-2-fluoro-5,5′-dimethoxy-4-biphenylyl)-N-3-isoxazolyl-2-oxo-1,2-dihydro-6-quinolinesulfonamide] |
| 0.008 µM | COc1cc(-c2ccc(Cl)c(F)c2)c(F)cc1-n1c(=O)ccc2cc(S(=O)(=O)Nc3ccon3)ccc21 (atropisomer, axis not shown; (M)) [Example 504, (M)-1-(4′-chloro-2,3′-difluoro-5-methoxy-4-biphenylyl)-N-3-isoxazolyl-2-oxo-1,2-dihydro-6-quinolinesulfonamide] |
| 1.01 µM | COc1cc(-c2cc(C)cc(Cl)c2)c(F)cc1-n1c(=O)ccc2cc(S(=O)(=O)Nc3ccon3)ccc21 (atropisomer, axis not shown; (M)) [Example 507, (M)-1-(3′-chloro-2-fluoro-5-methoxy-5′-methyl-4-biphenylyl)-N-3-isoxazolyl-2-oxo-1,2-dihydro-6-quinolinesulfonamide] |
| 1.68 µM | COc1cc(-c2ccc(Cl)c(C#N)c2)c(F)cc1-n1c(=O)ccc2cc(S(=O)(=O)Nc3ccon3)ccc21 (atropisomer, axis not shown; (M)) [Example 509, (M)-1-(4′-chloro-3′-cyano-2-fluoro-5-methoxy-4-biphenylyl)-N-3-isoxazolyl-2-oxo-1,2-dihydro-6-quinolinesulfonamide] |
| 8.62 µM | COc1cc(-c2ccc(C)c(F)c2)c(F)cc1-n1c(=O)ccc2cc(S(=O)(=O)Nc3ccon3)ccc21 (atropisomer, axis not shown; (M)) [Example 511, (M)-1-(2,3′-difluoro-5-methoxy-4′-methyl-4-biphenylyl)-N-3-isoxazolyl-2-oxo-1,2-dihydro-6-quinolinesulfonamide] |
| 0.016 µM | COc1cc(-c2cc(Cl)cc(C#N)c2)c(F)cc1-n1c(=O)ccc2cc(S(=O)(=O)Nc3ccon3)ccc21 (atropisomer, axis not shown; (M)) [Example 519, (M)-1-(3′-chloro-5′-cyano-2-fluoro-5-methoxy-4-biphenylyl)-N-3-isoxazolyl-2-oxo-1,2-dihydro-6-quinolinesulfonamide] |
| > 10 µM | COc1cc(-c2ccc(C#N)c(Cl)c2)c(F)cc1-n1c(=O)ccc2cc(S(=O)(=O)Nc3ccon3)ccc21 (atropisomer, axis not shown; (M)) [Example 521, (M)-1-(3′-chloro-4′-cyano-2-fluoro-5-methoxy-4-biphenylyl)-N-3-isoxazolyl-2-oxo-1,2-dihydro-6-quinolinesulfonamide] |
| 4.74 µM | COc1cc(-c2cccc(C)c2)c(F)cc1-n1c(=O)ccc2cc(S(=O)(=O)Nc3ccon3)ccc21 (atropisomer, axis not shown; (M)) [Example 523, (M)-1-(2-fluoro-5-methoxy-3′-methyl-4-biphenylyl)-N-3-isoxazolyl-2-oxo-1,2-dihydro-6-quinolinesulfonamide] |
| 4.84 µM | COc1cc(-c2ccc(C)c(C#N)c2)c(F)cc1-n1c(=O)ccc2cc(S(=O)(=O)Nc3ccon3)ccc21 (atropisomer, axis not shown; (M)) [Example 525, (M)-1-(3′-cyano-2-fluoro-5-methoxy-4′-methyl-4-biphenylyl)-N-3-isoxazolyl-2-oxo-1,2-dihydro-6-quinolinesulfonamide] |
| 3.15 µM | COc1cc(-c2ccc(C)c(Cl)c2)c(F)cc1-n1c(=O)ccc2cc(S(=O)(=O)Nc3ccon3)ccc21 (atropisomer, axis not shown; (M)) [Example 529, (M)-1-(3′-chloro-2-fluoro-5-methoxy-4′-methyl-4-biphenylyl)-N-3-isoxazolyl-2-oxo-1,2-dihydro-6-quinolinesulfonamide] |
